In PubChem BioAssay AID2060492 (Molecular Pharmacology Branch, DTP, NCI, 2025):

Test system: 695427-040-R-J1-PDC complex spheroids, viability percent T/C
Assay: Anticancer human tumor 695427-040-R-J1-PDC patient-derived colon adenocarcinoma cell line growth inhibition [GQUAD]
Details: for IC50: curve of first compound; for viability, T/C: stronger effect = lower value
Excerpt: DNA G-quadruplex Stabilizer Agents in Combinations in Complex Spheroids
A high-throughput screen of multi-cell type tumor spheroids was designed to identify active combinations of DNA G-quadruplex stabilizer agents and targeted small molecules. Complex spheroids include a stromal component modeled by human endothelial cells (HUVEC) and fibroblasts modeled by human mesenchymal stem cells (MSCs). The concentration ranges selected for each drug and investigational agent were based upon clinically achievable concentrations if the clinical Cmax of the agent was known.
Compounds. The drugs and investigational agents: pidnarulex (CX-5461; NSC782164), APTO-253 (NSC789042), BRACO-19 (NSC847499), peposertib (NSC802822), ceralasertib (NSC780249), elimusertib (NSC800525), camonsertib (NSC841442), AZD-1390 (NSC803789), olaparib (NSC753686), talazoparib (NSC767125), ART-558 (NSC835418), sotorasib (NSC818433), MRTX-1133 (NSC836407), SN-38 (NSC673596), topotecan (NSC609699), etoposide (NSC141540), doxorubicin (NSC123127), gemcitabine (NSC613327), 5-fluorouracil (NSC19893), paclitaxel (NSC125973), vemurafenib (NSC761431), panobinostat (NSC761190), R-306465 (JNJ-16241199; NSC773264), adavosertib (NSC754352), TP-3654 (NSC805149), carboplatin (NSC241240), KSQ-4279 (NSC840948), and staurosporine (NSC755774) were obtained from the National Cancer Institute (NCI) Developmental Therapeutics Program Chemical Repository (34). The FDA-approved anticancer drug set is available from the NCI Developmental Therapeutics Program. […] The stock solutions were prepared in dimethyl sulfoxide (DMSO, Sigma-Aldrich, St. Louis, MO, cat. D2650) at 800-fold the tested concentration and stored at -70 degrees C prior to their use. All drugs and investigational agents were tested over a range starting from a high concentration at or near the clinical Cmax and decreasing in half-log increments. If the clinical Cmax for an agent had not been determined, the highest concentration tested was 10 microM.
2.3 Cell Culture. All cells were maintained in an incubator at 37 degrees C and 5% CO2 with 95% humidity. The PDC lines were cultured according to standard operating procedures established by the NCI PDMR. All PDCs were thawed and cultured in Matrigel-coated flasks prepared with a working solution of 1X Ham's F-12 nutrient mix, without supplementation (Invitrogen, cat. 11765054), 100 U/mL penicillin-streptomycin (Invitrogen, cat. 15140122), and 2.5% Matrigel (Corning Inc., cat. 354248) for the first three passages. The 857933-349-R-J2-PDC line was cultured in 6C/Colon 1B media, which includes advanced DMEM/F-12 (Thermo Fisher Scientific, cat. 12634028), 10 mM HEPES (Thermo Fisher Scientific, cat. 15630080), 1X GlutaMAX supplement (Thermo Fisher Scientific, cat. 35050061), 0.1 mg/mL primocin (InvivoGen, cat. ant-pm-2), 10% defined fetal bovine serum, heat inactivated (HyClone Laboratories Inc., cat. SH30070.03HI), 50% L-WRN conditioned media (ATCC, cat. CRL-3276), 1.25 mM N-Acetyl-L-cysteine (Sigma-Aldrich, cat. A9165), 10 mM nicotinamide (Sigma-Aldrich, cat. N0636), 1X B-27 supplement (Thermo Fisher Scientific, cat. 17504044), 1X N-2 supplement (Thermo Fisher Scientific, cat. 17502048), 10 microM Y-27632 dihydrochloride (Tocris Bioscience, cat. 1254), and 50 ng/mL human EGF recombinant protein (Thermo Fisher Scientific, cat. PHG0311). The 485176-168-R4-J1-PDC line was cultured in Panc media, which includes all 6C/Colon 1B media components plus 100 ng/mL human FGF-10 (Thermo Fisher Scientific, cat. 100-26), 500 nM SB-431542 (Selleckchem, cat. S1067), and gastrin (Tocris, cat. 3006).
[…]

[1] = second compound 0.0316 µM, first compound 0.0316 µM
[2] = second compound 0.0316 µM, first compound 0.316 µM
[3] = second compound 0.1 µM, first compound 0.0316 µM
[4] = second compound 0.1 µM, first compound 0.316 µM
[5] = second compound 0.316 µM, first compound 0.0316 µM
[6] = second compound 0.316 µM, first compound 0.316 µM
[7] = second compound 1 µM, first compound 0.0316 µM
[8] = second compound 1 µM, first compound 0.316 µM
[9] = second compound 3.16 µM, first compound 0.0316 µM
[10] = second compound 3.16 µM, first compound 0.316 µM
[11] = second compound 10 µM, first compound 0.0316 µM
[12] = second compound 10 µM, first compound 0.316 µM
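Also: spheroids exposed to compounds for seven days before readout.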

Structure (SMILES): Cn1ncnc1[C@H]1c2n[nH]c(=O)c3cc(F)cc(c23)N[C@@H]1c1ccc(F)cc1 + CN(C)c1ccc(Nc2c3ccc(NC(=O)CCN4CCCC4)cc3nc3cc(NC(=O)CCN4CCCC4)ccc23)cc1
- IC50 (second compound 0.0316 µM): > 0.316 µM
- IC50 (second compound 0.1 µM): > 0.316 µM
- IC50 (second compound 0.316 µM): > 0.316 µM
- IC50 (second compound 1 µM): > 0.316 µM
- IC50 (second compound 3.16 µM): > 0.316 µM
- IC50 (second compound 10 µM): > 0.316 µM
- viability, T/C (second compound 0.0316 µM, first compound 0.000999 µM): 102%
- viability, T/C (second compound 0.0316 µM, first compound 0.00316 µM): 92.9%
- viability, T/C (second compound 0.0316 µM, first compound 0.00999 µM): 101%
- viability, T/C [1]: 103%
- viability, T/C (second compound 0.0316 µM, first compound 0.0999 µM): 100%
- viability, T/C [2]: 93%
- viability, T/C (second compound 0.1 µM, first compound 0.000999 µM): 112%
- viability, T/C (second compound 0.1 µM, first compound 0.00316 µM): 89.1%
- viability, T/C (second compound 0.1 µM, first compound 0.00999 µM): 95.7%
- viability, T/C [3]: 92.8%
- viability, T/C (second compound 0.1 µM, first compound 0.0999 µM): 93.5%
- viability, T/C [4]: 97.5%
- viability, T/C (second compound 0.316 µM, first compound 0.000999 µM): 88.2%
- viability, T/C (second compound 0.316 µM, first compound 0.00316 µM): 95.8%
- viability, T/C (second compound 0.316 µM, first compound 0.00999 µM): 99.5%
- viability, T/C [5]: 96.6%
- viability, T/C (second compound 0.316 µM, first compound 0.0999 µM): 90.9%
- viability, T/C [6]: 91.2%
- viability, T/C (second compound 1 µM, first compound 0.000999 µM): 105%
- viability, T/C (second compound 1 µM, first compound 0.00316 µM): 97.8%
- viability, T/C (second compound 1 µM, first compound 0.00999 µM): 91.5%
- viability, T/C [7]: 104%
- viability, T/C (second compound 1 µM, first compound 0.0999 µM): 101%
- viability, T/C [8]: 87.3%
- viability, T/C (second compound 3.16 µM, first compound 0.000999 µM): 99.6%
- viability, T/C (second compound 3.16 µM, first compound 0.00316 µM): 94.7%
- viability, T/C (second compound 3.16 µM, first compound 0.00999 µM): 88.8%
- viability, T/C [9]: 94.2%
- viability, T/C (second compound 3.16 µM, first compound 0.0999 µM): 95%
- viability, T/C [10]: 93.4%
- viability, T/C (second compound 10 µM, first compound 0.000999 µM): 93.3%
- viability, T/C (second compound 10 µM, first compound 0.00316 µM): 89.8%
- viability, T/C (second compound 10 µM, first compound 0.00999 µM): 77.3%
- viability, T/C [11]: 86.2%
- viability, T/C (second compound 10 µM, first compound 0.0999 µM): 96.4%
- viability, T/C [12]: 90.1%

Structure (SMILES): O=C(c1cc(Cc2n[nH]c(=O)c3ccccc23)ccc1F)N1CCN(C(=O)C2CC2)CC1 + CN(C)c1ccc(Nc2c3ccc(NC(=O)CCN4CCCC4)cc3nc3cc(NC(=O)CCN4CCCC4)ccc23)cc1
- IC50 (second compound 0.0316 µM): > 10 µM
- IC50 (second compound 0.1 µM): > 10 µM
- IC50 (second compound 0.316 µM): > 10 µM
- IC50 (second compound 1 µM): > 10 µM
- IC50 (second compound 3.16 µM): > 10 µM
- IC50 (second compound 10 µM): > 10 µM
- viability, T/C [1]: 111%
- viability, T/C (second compound 0.0316 µM, first compound 0.1 µM): 100%
- viability, T/C [2]: 93.4%
- viability, T/C (second compound 0.0316 µM, first compound 1 µM): 102%
- viability, T/C (second compound 0.0316 µM, first compound 3.16 µM): 107%
- viability, T/C (second compound 0.0316 µM, first compound 10 µM): 90.8%
- viability, T/C [3]: 107%
- viability, T/C (second compound 0.1 µM, first compound 0.1 µM): 94.2%
- viability, T/C [4]: 104%
- viability, T/C (second compound 0.1 µM, first compound 1 µM): 95.9%
- viability, T/C (second compound 0.1 µM, first compound 3.16 µM): 103%
- viability, T/C (second compound 0.1 µM, first compound 10 µM): 96%
- viability, T/C [5]: 99.2%
- viability, T/C (second compound 0.316 µM, first compound 0.1 µM): 89.1%
- viability, T/C [6]: 95.9%
- viability, T/C (second compound 0.316 µM, first compound 1 µM): 98.9%
- viability, T/C (second compound 0.316 µM, first compound 3.16 µM): 100%
- viability, T/C (second compound 0.316 µM, first compound 10 µM): 97.2%
- viability, T/C [7]: 93.2%
- viability, T/C (second compound 1 µM, first compound 0.1 µM): 88.7%
- viability, T/C [8]: 98.5%
- viability, T/C (second compound 1 µM, first compound 1 µM): 93.6%
- viability, T/C (second compound 1 µM, first compound 3.16 µM): 113%
- viability, T/C (second compound 1 µM, first compound 10 µM): 89.9%
- viability, T/C [9]: 97.1%
- viability, T/C (second compound 3.16 µM, first compound 0.1 µM): 90.7%
- viability, T/C [10]: 92.5%
- viability, T/C (second compound 3.16 µM, first compound 1 µM): 89.3%
- viability, T/C (second compound 3.16 µM, first compound 3.16 µM): 103%
- viability, T/C (second compound 3.16 µM, first compound 10 µM): 92%
- viability, T/C [11]: 91.1%
- viability, T/C (second compound 10 µM, first compound 0.1 µM): 84.6%
- viability, T/C [12]: 88%
- viability, T/C (second compound 10 µM, first compound 1 µM): 82.9%
- viability, T/C (second compound 10 µM, first compound 3.16 µM): 96.2%
- viability, T/C (second compound 10 µM, first compound 10 µM): 90.6%
